{"source": "ChEMBL document CHEMBL2034921", "about": "“5-(5-(6-[(11)C]methyl-3,6-diazabicyclo[3.2.0]heptan-3-yl)pyridin-2-yl)-1H-indole as a potential PET radioligand for imaging cerebral α7-nAChR in mice” (Bioorg Med Chem, 2012)", "format_in_all_cases": "ADME, organism-based", "key": {"Mus musculus [1]": {"system": "Mus musculus", "test": "Biodistribution in CD1 mouse frontal cortex at 3.7 MBq, iv after 90 mins in presence of 0.5 mg/kg, sc of PHA543613", "parameters": "dose 0.5 mg/kg, route intravenous", "conditions": "in vivo, 1.5 h; call rule not given here"}, "Mus musculus [2]": {"system": "Mus musculus", "test": "Biodistribution in CD1 mouse frontal cortex at 0.1 mCi, iv at 30 mins by gamma counting", "conditions": "in vivo, 0.5 h"}, "Striatum": {"system": "Striatum", "test": "Biodistribution in CD1 mouse striatum at 0.1 mCi, iv at 30 mins by gamma counting", "conditions": "in vivo, 0.5 h"}, "Hippocampus [3]": {"system": "Hippocampus", "test": "Biodistribution in CD1 mouse hippocampus at 0.1 mCi, iv at 30 mins by gamma counting", "conditions": "in vivo, 0.5 h"}, "Thalamus": {"system": "Thalamus", "test": "Biodistribution in CD1 mouse thalamus at 0.1 mCi, iv at 30 mins by gamma counting", "conditions": "in vivo, 0.5 h"}, "Hippocampus [4]": {"system": "Hippocampus", "test": "Biodistribution in CD1 mouse hippocampus at 3.7 MBq, iv after 90 mins in presence of 0.5 mg/kg, sc of PHA543613", "parameters": "dose 0.5 mg/kg, route intravenous", "conditions": "in vivo, 1.5 h"}}, "data": [{"smiles": "[11CH3]N1CC2CN(c3ccc(-c4ccc5[nH]ccc5c4)nc3)CC21", "note": "(racemic)", "values": [{"measurement": "Drug uptake", "setting": "Mus musculus [1]", "result": "Not Active"}, {"measurement": "Drug uptake", "setting": "Mus musculus [2]", "result": "Active"}, {"measurement": "Drug uptake", "setting": "Striatum", "result": "Active"}, {"measurement": "Drug uptake", "setting": "Hippocampus [3]", "result": "Active"}, {"measurement": "Drug uptake", "setting": "Thalamus", "result": "Active"}, {"measurement": "Drug uptake", "setting": "Hippocampus [4]", "result": "Not Active"}]}]}
